These compounds were tested against T1, human CCR6 (Homo sapiens, UniProt P51684) (assay: Migration (chemotaxis) assay, hCCR6-transfected Ba/F3 cells toward CCL20). Settings: hCCR6-transfected Ba/F3 cells in human serum; recombinant human CCL20 10 nM; 37° C. 45 minutes; read-out: Potency (IC50 value in the migration assay).
T1 construct: expressed in transfected cells; host or cells: Ba/F3 cells (murine pro-B line), hCCR6-transfected, CMV promoter, sodium butyrate induction
T1 sequence (P51684 1-374): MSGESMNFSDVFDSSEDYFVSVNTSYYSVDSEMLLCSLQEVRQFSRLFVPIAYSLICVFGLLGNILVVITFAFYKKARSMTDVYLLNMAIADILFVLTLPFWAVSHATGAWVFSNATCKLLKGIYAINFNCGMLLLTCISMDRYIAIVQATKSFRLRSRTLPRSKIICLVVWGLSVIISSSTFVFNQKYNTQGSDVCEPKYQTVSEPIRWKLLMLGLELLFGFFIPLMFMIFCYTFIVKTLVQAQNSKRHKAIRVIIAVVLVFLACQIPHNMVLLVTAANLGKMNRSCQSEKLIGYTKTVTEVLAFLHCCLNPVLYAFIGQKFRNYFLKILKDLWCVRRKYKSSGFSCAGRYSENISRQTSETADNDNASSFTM
Assay type: cell-based
Source text: A chemotaxis assay can be used to determine the efficacy of potential receptor antagonists at blocking the migration mediated through chemokine receptors, such as CCR6. This assay is routinely performed using the ChemoTX® microchamber system with a 5-μm pore-sized polycarbonate membrane. Chemokine receptor-expressing cells are required for such an assay. In this case, Ba/F3 cells (Palacios et al., Nature, 309:126, 1984) transfected with the gene for human CCR6 under control of the CMV promotor were used. To begin such an assay, hCCR6-transfected Ba/F3 cells are first grown for 24 hr in medium supplemented with sodium butyrate, which increases CCR6 transcription via the CMV promotor. The prepared Ba/F3 cells, are collected by centrifugation at 400×g at room temperature, then suspended at 4 million/ml in human serum. The compound being tested is serially diluted from a maximum final concentration of 10 μM (or an equivalent volume of its solvent (DMSO)) and is then added to the cell/serum mixture. Separately, recombinant human CCL20 (MIP-3α/LARC) at its EC50 concentration (10 nM) is placed in the lower wells of the ChemoTX® plate. The 5-μm (pore size) polycarbonate membrane is placed onto the plate, and 20 μL of the cell/compound mixture is transferred onto each well of the membrane. The plates are incubated at 37° C. for 45 minutes, after which the polycarbonate membranes are removed and 5 μl of the DNA-intercalating dye CyQUANT (Invitrogen, Carlsbad, CA) is added to the lower wells. The amount of fluorescence, corresponding to the number of migrated cells, is measured using a Spectrafluor Plus plate reader (TECAN, San Jose, CA).

Compound | IC50
O=C1NCCc2nc(-c3ccc(S(=O)(=O)N4CCC(Nc5ccc(C(F)(F)F)cn5)CC4)cc3)sc21 [Example 1.048] | 5 to 100 nM
N#Cc1c[nH]c2ccc(-c3ccc(S(=O)(=O)N4CCC(Nc5ccc(C(F)(F)F)cn5)CC4)cc3)cc12 [Example 1.114] | < 5 nM
O=c1[nH]c2ccc(-c3ccc(S(=O)(=O)N4CCC(Nc5ccc(C(F)(F)F)cn5)CC4)cc3)cc2[nH]1 [Example 1.115] | 5 to 100 nM
NC(=O)CC1CCN(c2ccc(S(=O)(=O)N3CCC(Nc4ccc(C(F)(F)F)cn4)CC3)cc2)CC1 [Example 1.155] | < 5 nM
N#Cc1cn(CC(N)=O)c2ncc(-c3ccc(S(=O)(=O)N4CCC(Nc5ccc(C(F)(F)F)cn5)CC4)cc3)cc12 [Example 1.039] | < 5 nM
O=C1c2ccc(-c3ccc(S(=O)(=O)N4CCC(Nc5ccc(C(F)(F)F)cn5)CC4)cc3)cc2CN1CCO [Example 1.021] | 5 to 100 nM
CC(=O)NCCn1cc(C#N)c2cc(-c3ccc(S(=O)(=O)N4CCC(Nc5ccc(C(F)(F)F)cn5)CC4)cc3)cnc21 [Example 1.011] | < 5 nM
O=S(=O)(c1ccc(-c2cnc3[nH]ccc3c2F)cc1)N1CCC(Nc2ccc(C(F)(F)F)cn2)CC1 [Example 1.030] | < 5 nM
CN1CCC2(CCN(c3ccc(S(=O)(=O)N4CCC(Nc5ccc(C(F)(F)F)cn5)CC4)cc3)CC2)C1=O [Example 1.157] | 5 to 100 nM
NCCC1CCN(c2ccc(S(=O)(=O)N3CCC(Nc4ccc(C(F)(F)F)cn4)CC3)cc2)CC1 [Example 1.132] | 100 to 10000 nM
CC1(C)Oc2cc(-c3ccc(S(=O)(=O)N4CCC(Nc5ccc(C(F)(F)F)cn5)CC4)cc3)ccc2NC1=O [Example 1.019] | 5 to 100 nM
O=C1NS(=O)(=O)c2cc(-c3ccc(S(=O)(=O)N4CCC(Nc5ccc(C(F)(F)F)cn5)CC4)cc3)ccc21 [Example 1.062] | 5 to 100 nM
NC(=O)c1c[nH]c2ccc(-c3ccc(S(=O)(=O)N4CCC(Nc5ccc(C(F)(F)F)cn5)CC4)cc3)cc12 [Example 1.080] | 5 to 100 nM
CN(C)CCn1cc(C#N)c2cc(-c3ccc(S(=O)(=O)N4CCC(Nc5ccc(C(F)(F)F)cn5)CC4)cc3)cnc21 [Example 1.001] | 5 to 100 nM
O=S(=O)(c1ccc(-c2cc3cc[nH]c3nc2F)cc1)N1CCC(Nc2ccc(C(F)(F)F)cn2)CC1 [Example 1.042] | 5 to 100 nM
CS(=O)(=O)NCCC1CCN(c2ccc(S(=O)(=O)N3CCC(Nc4ccc(C(F)(F)F)cn4)CC3)cc2)CC1 [Example 1.127] | 5 to 100 nM
O=C1Nc2ccc(-c3ccc(S(=O)(=O)N4CCC(Nc5ccc(C(F)(F)F)cn5)CC4)cc3)cc2C12CCNCC2 [Example 1.028] | 5 to 100 nM

Results, then the compound that gave them:

IC50 | Compound
100 to 10000 nM | NC(=O)C1CCN(c2ccc(S(=O)(=O)N3CCC(Nc4ccc(C(F)(F)F)cn4)CC3)cc2)C1 (centres unmarked) [Example 1.195]
5 to 100 nM | NC(=O)N1CCCN(c2ccc(S(=O)(=O)N3CCC(Nc4ccc(C(F)(F)F)cn4)CC3)cc2)CC1 [Example 1.203]
100 to 10000 nM | O=C1CCCCN1c1ccc(S(=O)(=O)N2CCC(Nc3ccc(C(F)(F)F)cn3)CC2)cc1 [Example 1.227]
5 to 100 nM | NC(=O)C1CCCN(c2ccc(S(=O)(=O)N3CCC(Nc4ccc(C(F)(F)F)cn4)CC3)cc2)C1 (centres unmarked) [Example 1.230]
100 to 10000 nM | NS(=O)(=O)C1CCN(c2ccc(S(=O)(=O)N3CCC(Nc4ccc(C(F)(F)F)cn4)CC3)cc2)CC1 [Example 1.189]
5 to 100 nM | CC(C)(C)OC(=O)N1CCC=C(c2ccc(S(=O)(=O)N3CCC(Nc4ccc(C(F)(F)F)cn4)CC3)cc2)C1 [Example 1.233]
5 to 100 nM | NC(=O)C1(O)CCN(c2ccc(S(=O)(=O)N3CCC(Nc4ccc(C(F)(F)F)cn4)CC3)cc2)CC1 [Example 1.166]
100 to 10000 nM | NC(=O)NC1CC2(C1)CN(c1ccc(S(=O)(=O)N3CCC(Nc4ccc(C(F)(F)F)cn4)CC3)cc1)C2 [Example 1.159]
100 to 10000 nM | NC(=O)[C@H]1[C@@H]2CN(c3ccc(S(=O)(=O)N4CCC(Nc5ccc(C(F)(F)F)cn5)CC4)cc3)C[C@@H]21 [Example 1.162]

Reference: patent US12012403B2, “Aryl sulfonyl compounds as CCR6 inhibitors” (CHEMOCENTRYX, INC., priority 2021, dated 2024)
